Target: T1, AcCPR (Aphis citricidus, UniProt A0A346QRP0)
T1 construct: full-length ORF in pFastBac HT A, 6xHis-tagged, Sf9 cell extract (soluble supernatant; called microsomes in results)
T1 sequence (A0A346QRP0 1-681): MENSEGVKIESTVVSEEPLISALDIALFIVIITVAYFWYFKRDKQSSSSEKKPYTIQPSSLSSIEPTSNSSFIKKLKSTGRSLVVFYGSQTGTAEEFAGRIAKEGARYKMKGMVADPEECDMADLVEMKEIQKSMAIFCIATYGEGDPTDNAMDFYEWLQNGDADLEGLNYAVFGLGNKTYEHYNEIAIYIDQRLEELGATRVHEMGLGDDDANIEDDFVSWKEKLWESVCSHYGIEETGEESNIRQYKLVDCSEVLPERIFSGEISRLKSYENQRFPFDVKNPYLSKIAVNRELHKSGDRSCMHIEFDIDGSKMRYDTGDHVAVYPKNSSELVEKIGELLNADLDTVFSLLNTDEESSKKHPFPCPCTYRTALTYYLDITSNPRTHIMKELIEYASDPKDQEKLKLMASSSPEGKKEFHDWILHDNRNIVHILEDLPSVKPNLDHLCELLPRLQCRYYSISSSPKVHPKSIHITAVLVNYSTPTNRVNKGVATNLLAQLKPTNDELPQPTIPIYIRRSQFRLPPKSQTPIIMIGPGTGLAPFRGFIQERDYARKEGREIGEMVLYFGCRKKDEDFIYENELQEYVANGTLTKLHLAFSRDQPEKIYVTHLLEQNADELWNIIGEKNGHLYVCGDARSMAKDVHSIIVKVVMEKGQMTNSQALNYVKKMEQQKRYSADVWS
Test: NADPH-cytochrome c reduction, absorbance at […] nm, Sf9 cell extract
Format: biochemical
Conditions: cytochrome c as electron acceptor, 0.3 M potassium phosphate pH 7.7; NADPH 2 uL of 10 mM stock in 200 uL

## NC(=O)C1=CN([C@@H]2O[C@H](COP(=O)(O)OP(=O)(O)OC[C@H]3O[C@@H](n4cnc5c(N)ncnc54)[C@H](OP(=O)(O)O)[C@@H]3O)[C@@H](O)[C@H]2O)C=CC1 [NADPH]
  NADPH-cytochrome c reduction, absorbance at 550 nm, Sf9 cell extract: Heterologously expressed AcCPR activity was determined by spectrophotometric measurement of the activity of NADPH-cytochrome-c reduction
